For test [1], the system named is Human Aortic Smooth Muscle Cells (HASMCs). Put plainly: In vitro cell proliferation test (MTT colorimetry), smooth muscle cells. To be noted: 72 hours, based on the control group, average of 6 tests.
Test [2] deals with Human Aortic Endothelial Cells (HAECs). As to the kind of experiment: In vitro cell proliferation test (MTT colorimetry), endothelial cells. To be noted: 72 hours, based on the control group, average of 6 tests.
Setting [3] is: 1 μmol of each drug in culture medium.
Setting [4] is: 6 μmol of each drug in culture medium.
Setting [5] is: 10 μmol of each drug in culture medium.

On to `CO[C@H]1C[C@@H]2CC[C@@H](C)[C@@](O)(O2)C(=O)C(=O)N2CCCC[C@H]2C(=O)O[C@H]([C@H](C)C[C@@H]2CC[C@@H](O)[C@H](OC)C2)CC(=O)[C@H](C)/C=C(\C)[C@@H](O)[C@@H](OC)C(=O)[C@H](C)C[C@H](C)/C=C/C=C/C=C/1C` [Rapamycin, rapamycin], for which the “Smooth muscle cell inhibition rate (%)” value worked out at 9.1% in test [1] (setting [3]) and 18.9% in test [1] (setting [4]). Moreover, the “Endothelial cell inhibition rate (%)” value in test [2] (setting [3]) is recorded as 7.7%; in test [2] (setting [4]) it was 16.0%; in test [2] (setting [5]), 21.8%.

With `CC(C)c1ccc2oc3nc(N)c(C(=O)O)cc3c(=O)c2c1` [Amlexanox, 2-amimo-7-isopropyl-5-oxo-5H-[1]benzopyrano-[2,3,-b]pyridine-3-carboxylic acid], the “Smooth muscle cell inhibition rate (%)” value in test [1] (setting [3]) came out at 11.6%; in test [1] (setting [4]) it was 19.0%; in test [1] (setting [5]), 23.4%. Moreover, the “Endothelial cell inhibition rate (%)” value in test [2] (setting [3]) was found to be 0.9%; in test [2] (setting [4]) it was 2.8%; in test [2] (setting [5]) it was 3.5%.
